Data published in ChEMBL document CHEMBL3763039, “Development and Characterization of Potent Cyclic Acyldepsipeptide Analogues with Increased Antimicrobial Activity” (2016).
Converted amounts (≈) assume the structure as drawn. Where a SMILES comes first, the peptide text is derived from it. Bridges are numbered along the chain shown (N, C = ends). [ ]: non-standard residue; d: D form. The star is where a group is joined. Phe(F5) = N[C@@H](Cc1c(F)c(F)c(F)c(F)c1F)C(=O)O; Phe(3,5-F2) = N[C@@H](Cc1cc(F)cc(F)c1)C(=O)O; Pip(4S-Me) = C[C@H]1CCN[C@H](C(=O)O)C1; Pro(4R-Me) = C[C@H]1CN[C@H](C(=O)O)C1; Heptenoyl(2E) = CCCC/C=C/C(=O)*; Pip = O=C(O)[C@@H]1CCCCN1; Abu = CC[C@H](N)C(=O)O

How the values were obtained:
Format in all cases: functional
Listeria innocua = test: Antibacterial activity against Listeria innocua incubated for 16 to 18 hrs by broth microdilution method
Staphylococcus aureus [1] = test: Antibacterial activity against methicillin-resistant Staphylococcus aureus 1784A incubated for 16 to 18 hrs by broth microdilution method
Bacillus subtilis = test: Antibacterial activity against Bacillus subtilis PY79 incubated for 16 to 18 hrs by broth microdilution method
Staphylococcus aureus [2] = test: Antibacterial activity against Staphylococcus aureus ATCC 29213 incubated for 16 to 18 hrs by broth microdilution method
Streptococcus pneumoniae = test: Antibacterial activity against Streptococcus pneumoniae D39 incubated for 16 to 18 hrs by broth microdilution method
Staphylococcus aureus [3] = test: Antibacterial activity against Staphylococcus aureus subsp. aureus Newman clinical isolate incubated for 16 to 18 hrs by broth microdilution method
Enterococcus faecalis = test: Antibacterial activity against vancomycin-resistant Enterococcus faecalis V583 incubated for 16 to 18 hrs by broth microdilution method
Neisseria gonorrhoeae = test: Antibacterial activity against chloramphenicol-resistant Neisseria gonorrhoeae N.279 incubated for 16 to 18 hrs by broth microdilution method
Neisseria meningitidis = test: Antibacterial activity against Neisseria meningitidis H44/76 incubated for 16 to 18 hrs by broth microdilution method
Pseudomonas aeruginosa = test: Antibacterial activity against Pseudomonas aeruginosa PAO1 incubated for 16 to 18 hrs by broth microdilution method
Escherichia coli [4] = test: Antibacterial activity against Escherichia coli MC4100 expressing lptD-4213 incubated for 16 to 18 hrs by broth microdilution method
Escherichia coli [5] = test: Antibacterial activity against Escherichia coli MC4100 incubated for 16 to 18 hrs by broth microdilution method

SMILES: CCCC/C=C/C(=O)N[C@@H](Cc1c(F)c(F)c(F)c(F)c1F)C(=O)N[C@H]1COC(=O)[C@@H]2C[C@@H](C)CN2C(=O)[C@H](CC)NC(=O)[C@@H]2CCCCN2C(=O)[C@@H]2CCCN2C1=O ({Heptenoyl(2E)}-[Phe(F5)]SP[Pip][Abu][Pro(4R-Me)]; ester 2-C)
- MIC (Listeria innocua): 4 µg/mL (≈ 4.77 µM)
- MIC (Staphylococcus aureus [1]): > 128 µg/mL
- MIC (Bacillus subtilis): 128 µg/mL (≈ 153 µM)
- MIC (Staphylococcus aureus [2]): > 128 µg/mL
- MIC (Streptococcus pneumoniae): > 128 µg/mL
- MIC (Staphylococcus aureus [3]): > 128 µg/mL
- MIC (Enterococcus faecalis): 16 µg/mL (≈ 19.1 µM)
- MIC (Neisseria gonorrhoeae): 32 µg/mL (≈ 38.1 µM)
- MIC (Neisseria meningitidis): 32 µg/mL (≈ 38.1 µM)
- MIC (Pseudomonas aeruginosa): > 128 µg/mL
- MIC (Escherichia coli [4]): > 128 µg/mL
- MIC (Escherichia coli [5]): > 128 µg/mL

SMILES: C[C@@H]1C[C@H]2C(=O)O[C@@H](C)[C@H](NC(=O)[C@H](Cc3cc(F)cc(F)c3)NC(=O)/C=C/CC3CC3)C(=O)N3CCC[C@H]3C(=O)N3CCCC[C@H]3C(=O)N[C@@H](C)C(=O)N2C1
- MIC (Listeria innocua): ≤ 0.0625 µg/mL
- MIC (Staphylococcus aureus [1]): 0.125 µg/mL (≈ 0.16 µM)
- MIC (Bacillus subtilis): ≤ 0.0625 µg/mL
- MIC (Staphylococcus aureus [2]): 0.0078 µg/mL (≈ 0.00996 µM)
- MIC (Streptococcus pneumoniae): ≤ 0.0625 µg/mL
- MIC (Staphylococcus aureus [3]): 0.0625 µg/mL (≈ 0.0798 µM)
- MIC (Enterococcus faecalis): 0.0078 µg/mL (≈ 0.00996 µM)
- MIC (Neisseria gonorrhoeae): 0.125 µg/mL (≈ 0.16 µM)
- MIC (Neisseria meningitidis): 0.25 µg/mL (≈ 0.319 µM)
- MIC (Pseudomonas aeruginosa): > 128 µg/mL
- MIC (Escherichia coli [4]): > 128 µg/mL
- MIC (Escherichia coli [5]): > 128 µg/mL

SMILES: CCCC/C=C/C(=O)N[C@@H](Cc1cc(F)cc(F)c1)C(=O)N[C@H]1COC(=O)[C@@H]2C[C@@H](C)CN2C(=O)[C@H](C)NC(=O)[C@@H]2C[C@@H](C)CCN2C(=O)[C@@H]2CCCN2C1=O ({Heptenoyl(2E)}-[Phe(3,5-F2)]SP[Pip(4S-Me)]A[Pro(4R-Me)]; ester 2-C)
- MIC (Listeria innocua): ≤ 0.0625 µg/mL
- MIC (Staphylococcus aureus [1]): 4 µg/mL (≈ 5.1 µM)
- MIC (Bacillus subtilis): ≤ 0.0625 µg/mL
- MIC (Staphylococcus aureus [2]): 0.0156 µg/mL (≈ 0.0199 µM)
- MIC (Streptococcus pneumoniae): ≤ 0.0625 µg/mL
- MIC (Staphylococcus aureus [3]): 0.5 µg/mL (≈ 0.637 µM)
- MIC (Enterococcus faecalis): 0.0156 µg/mL (≈ 0.0199 µM)
- MIC (Neisseria gonorrhoeae): 0.0625 µg/mL (≈ 0.0796 µM)
- MIC (Neisseria meningitidis): 0.125 µg/mL (≈ 0.159 µM)
- MIC (Pseudomonas aeruginosa): > 128 µg/mL
- MIC (Escherichia coli [4]): > 128 µg/mL
- MIC (Escherichia coli [5]): > 128 µg/mL

SMILES: CCCC/C=C/C(=O)N[C@@H](Cc1cc(F)cc(F)c1)C(=O)N[C@H]1COC(=O)[C@@H]2C[C@@H](C)CN2C(=O)[C@H](CC)NC(=O)[C@@H]2CCCN2C(=O)[C@@H]2CCCN2C1=O ({Heptenoyl(2E)}-[Phe(3,5-F2)]SPP[Abu][Pro(4R-Me)]; ester 2-C)
- MIC (Listeria innocua): ≤ 0.0625 µg/mL
- MIC (Staphylococcus aureus [1]): 2 µg/mL (≈ 2.59 µM)
- MIC (Bacillus subtilis): 0.125 µg/mL (≈ 0.162 µM)
- MIC (Staphylococcus aureus [2]): 2 µg/mL (≈ 2.59 µM)
- MIC (Streptococcus pneumoniae): 0.5 µg/mL (≈ 0.649 µM)
- MIC (Staphylococcus aureus [3]): 2 µg/mL (≈ 2.59 µM)
- MIC (Enterococcus faecalis): 0.25 µg/mL (≈ 0.324 µM)
- MIC (Neisseria gonorrhoeae): 4 µg/mL (≈ 5.19 µM)
- MIC (Neisseria meningitidis): 4 µg/mL (≈ 5.19 µM)
- MIC (Pseudomonas aeruginosa): > 128 µg/mL
- MIC (Escherichia coli [4]): > 128 µg/mL
- MIC (Escherichia coli [5]): > 128 µg/mL

SMILES: CN[C@@H](CC(C)C)C(=O)N[C@H]1C(=O)N[C@@H](CC(N)=O)C(=O)N[C@H]2C(=O)N[C@H]3C(=O)N[C@H](C(=O)N[C@@H](C(=O)O)c4cc(O)cc(O)c4-c4cc3ccc4O)[C@H](O)c3ccc(c(Cl)c3)Oc3cc2cc(c3O[C@H]2O[C@@H](CO)[C@H](O)[C@@H](O)[C@@H]2O[C@@H]2C[C@@](C)(N)[C@@H](O)[C@@H](C)O2)Oc2ccc(cc2Cl)[C@H]1O
- MIC (Listeria innocua): 1 µg/mL (≈ 0.69 µM)
- MIC (Staphylococcus aureus [1]): 1.3 µg/mL (≈ 0.897 µM)
- MIC (Bacillus subtilis): 0.16 µg/mL (≈ 0.11 µM)
- MIC (Streptococcus pneumoniae): 0.25 µg/mL (≈ 0.173 µM)

SMILES: CCCC/C=C/C(=O)N[C@@H](Cc1cc(F)cc(F)c1)C(=O)N[C@@H]1C(=O)N2CCC[C@H]2C(=O)N2CCCC[C@H]2C(=O)N[C@@H](C)C(=O)N2CCC[C@H]2C(=O)O[C@H]1C
- MIC (Listeria innocua): ≤ 0.0625 µg/mL
- MIC (Staphylococcus aureus [1]): 0.125 µg/mL (≈ 0.162 µM)
- MIC (Bacillus subtilis): ≤ 0.0625 µg/mL
- MIC (Staphylococcus aureus [2]): 0.0078 µg/mL (≈ 0.0101 µM)
- MIC (Streptococcus pneumoniae): ≤ 0.0625 µg/mL
- MIC (Staphylococcus aureus [3]): 0.0625 µg/mL (≈ 0.0811 µM)
- MIC (Enterococcus faecalis): 0.0078 µg/mL (≈ 0.0101 µM)
- MIC (Neisseria gonorrhoeae): 0.125 µg/mL (≈ 0.162 µM)
- MIC (Neisseria meningitidis): 0.25 µg/mL (≈ 0.324 µM)
- MIC (Pseudomonas aeruginosa): > 128 µg/mL
- MIC (Escherichia coli [4]): > 128 µg/mL
- MIC (Escherichia coli [5]): > 128 µg/mL
